Experiments:
PDE1 = test: PDE assay, PDE1 enzyme solution from rat ventricle; assay type: biochemical, SD rat; conditions: substrate about 12 nM [3H]-cGMP and 1 μM cGMP
Method: Ventricle was excised from SD rat anesthetized with sodium pentobarbital (Nihon SLC, about 300 g), and washed with 100 ml of ice-cold saline 3 times. After the tissues were cut in approximately 1 g, it was frozen by liquid nitrogen, and stored at −80° C.
To about 5 g of this tissue sample was added 16 ml of an ice-cold homogenization buffer I, and the resultant mixture was homogenized by Polytron homogenizer for 3 minutes. The homogenate was centrifuged at 8000 rpm, at 4° C. for 20 minutes, and the obtained supernatant was further centrifuged by an ultracentrifuge at 50000 rpm, at 4° C. for 60 minutes. The resultant supernatant was stored at 4° C. […]
Subsequently, the eluted fractions were used as an enzyme solution for PDE assay. […] (final concentration of 1 mM) or calcium chloride (final concentration of 2 mM) and calmodulin (40 unit s/ml), and cGMP-hydrolyzing activity was measured.
For these PDE1 containing fractions, cGMP hydrolyzing activities were analyzed in the presence of E4021 (100 nM), PDE5 specific inhibitor, it was shown that the cGMP-hydrolyzing activities in these fractions were not inhibited by E4021. […]
Further, in the presence or absence of unlabeled cGMP, cAMP-PDE activities were measured for each of the fractions. […]
Still further, in the presence of rolipram (10 μm), the PDE4 specific inhibitor, cAMP hydrolyzing activities were measured for each of the fractions. […]

marmoset MPTP model = test: Marmoset MPTP model, effect on L-dopa efficacy; assay type: in vivo; conditions: 0.3 mg/kg or 1 mg/kg, i.v., together with L-dopa, versus vehicle with L-dopa
Method: Using marmoset MPTP models, effects of test compound on pharmaceutical efficacy of L-dopa administration were tested as follows.
About 16 weeks before carrying out the tests, marmosets were administered with MPTP (1-methyl-4-phenyl-1,2,3,6-tetrahydropyridine) (2.5 mg/kg, i.v.), according to the method described in the literature (Fukuzaki et al., Pharmacol. Biochem. Behav., vol. 67 No. 1, pp. 121-129, September 2000), to degenerate dopaminergic neurons in the brain, and individuals showing parkinsonian symptoms were used.
Using these marmosets (age 3-4 years, bodyweight 300-400 g), the following three kinds of tests were performed. […]
After administration of test compound (PDE10 inhibitor) (or vehicle) and L-dopa+benserazide, each individual was transferred to an activity cage equipped with four photo cell sensor units, and observation was continued for 6 hours at longest. For each individual, locomotor activity and motor disability score were evaluated in every 10-minute interval.
Motor disability was assessed according to the following 7 evaluation items, and total score of the 7 items were regarded as the motor disability score. […]

IC50 (PDE1): > 1000 nM
Compound: COc1ccc(-c2cc(N3CCCC3)nc(/C=C/c3nc(-n4ccnc4)c4ccccc4n3)n2)cc1OC [Compound A, 2-{(E)-2-[4-(1-imidazolyl)-quinazolin-2-yl]}ethenyl-4-(3,4-dimethoxy)phenyl-6-(pyrrolidin-1-yl)pyrimidine]
effects of L-dopa to alleviate symptoms (locomotor activity and motor disability score) (marmoset MPTP model): enhanced and/or prolonged duration of effects of L-dopa to alleviate symptoms

— patent US8338420B1, “Treatment of Parkinson's disease and enhancement of dopamine signal using PDE 10 inhibitor” (Mitsubishi Tanabe Pharma Corporation, priority 2002, dated 2012)
